In patent US6492416B1, “4,5-diaryl-3(2H)-furanone derivatives as cyclooxygenase-2 inhibitors” (Pacific Corporation, priority 1999, dated 2002):
≈ marks a conversion by molar mass, not a printed value.

Key:
COX-2 = target: T1, COX-2 (Mus musculus, UniProt Q05769); assay: Evaluation of COX-2 activity: PGE2 formation in aspirin-treated, LPS-stimulated mouse peritoneal macrophages; assay type: cell-based; conditions: for IC50: read-out: IC50, μg/ml COX-2 (converted)
T1 sequence (Q05769 18-604): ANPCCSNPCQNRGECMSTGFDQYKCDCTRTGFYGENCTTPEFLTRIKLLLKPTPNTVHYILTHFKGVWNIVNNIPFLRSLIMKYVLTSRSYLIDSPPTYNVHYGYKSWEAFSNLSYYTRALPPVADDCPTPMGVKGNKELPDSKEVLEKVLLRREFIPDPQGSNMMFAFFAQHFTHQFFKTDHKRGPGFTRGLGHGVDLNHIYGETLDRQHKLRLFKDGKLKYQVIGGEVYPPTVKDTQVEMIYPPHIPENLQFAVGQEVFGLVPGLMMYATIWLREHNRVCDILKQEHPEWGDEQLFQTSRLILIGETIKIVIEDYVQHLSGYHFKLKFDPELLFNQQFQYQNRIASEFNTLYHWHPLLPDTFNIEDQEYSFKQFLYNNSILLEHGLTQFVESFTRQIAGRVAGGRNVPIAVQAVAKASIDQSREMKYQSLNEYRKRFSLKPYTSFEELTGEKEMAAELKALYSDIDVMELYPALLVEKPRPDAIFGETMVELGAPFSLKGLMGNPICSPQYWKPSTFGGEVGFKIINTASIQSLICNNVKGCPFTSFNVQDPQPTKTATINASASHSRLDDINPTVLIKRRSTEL
Protocol: (§1) Evaluation of in vitro COX-2 and COX-1 Activity [J. Pharmacol. Exp. Ther. 166, 96 (1969)]
(§2) The abdominal skin of a C57BL/6 mouse was sanitized with 70% aqueous ethanol, and was removed without damaging the peritoneum. 5 ml of cold phosphate buffer solution (PBS) was then injected into the abdominal cavity. After a minute, the peritoneal fluid containing the macrophages was collected using a syringe and a needle. The collected fluid was centrifuged for 5 min at 1500 rpm to afford pellets of cells. The pellets were then dispersed in the RPMI-1640 culture medium containing 100 units/ml penicillin and 100 μg/ml streptomycin.
The pellets dispersed as above were treated with 500 μM aspirin in order to knock out the activity of the COX-1 enzymes in the cells. The suspension was then diluted with the RPMI-1640 medium to contain 1×10^6 cells/ml. 100 μl of the suspension was added to each well of a 96-well ELISA plate. Then the plate was incubated for 2 hrs at 37° C. under 5% CO2 in order to fix the macrophages onto the plate. The cells, which were not fixed onto the plate were removed by washing with PBS two times. […] The RPMI-1640 medium containing 3% fetal bovine serum albumin was added to each well of the plate, which was followed by stimulation with 10 μg/ml lipopolysaccharide (LPS). […] The LPS-treated suspensions were incubated for 16 hours at 37° C. under 5% CO2 to induce COX-2. Then the culture medium was removed and the macrophages were washed two times with PBS. Then 130 μl RPMI-1640 culture medium was added to each well and the macrophage solutions were incubated at 37° C. for 10 minutes, which was followed by the treatment with 10 μM arachidonic acid and an appropriate amount of compounds of this invention. The plate was incubated for another 10 minutes. The upper solution was collected using a micropipette and was subjected to determination of PGE2 amount in the solution. The amount of PGE2 present in the collected solution was determined either by a known radio-immuno assay or by a known enzyme-immunoassay [Methods in Enzymol. 86, 258 (1982); Methods in Enzymol. 187, 24 (1990)]. The extent of COX-2 inhibition by a compound of the present invention was calculated by assuming, that the amount of PGE2 formed with the treatment of 10 μg/ml arachidonic acid was used is the maximum possible amount of PGE2, and that the amount of PGE2 formed without the treatment of arachidonic acid is the minimum possible amount of PGE2.
(§3) In order to determine IC50 for a compound of this invention, enzymatic activities were measured at multiple concentrations of compounds of this invention around IC50 of the compound. Usually enzymatic activities at 4˜5 concentrations were measured to calculate out IC50 for a compound of this invention.

COX-1 = target: T2, COX-1 (Mus musculus, UniProt P22437); assay: Evaluation of COX-1 activity: PGE2 formation in mouse peritoneal macrophages without aspirin and LPS treatment; assay type: cell-based; conditions: for IC50: read-out: IC50, μg/ml COX-1 (converted)
T2 sequence (P22437 27-602): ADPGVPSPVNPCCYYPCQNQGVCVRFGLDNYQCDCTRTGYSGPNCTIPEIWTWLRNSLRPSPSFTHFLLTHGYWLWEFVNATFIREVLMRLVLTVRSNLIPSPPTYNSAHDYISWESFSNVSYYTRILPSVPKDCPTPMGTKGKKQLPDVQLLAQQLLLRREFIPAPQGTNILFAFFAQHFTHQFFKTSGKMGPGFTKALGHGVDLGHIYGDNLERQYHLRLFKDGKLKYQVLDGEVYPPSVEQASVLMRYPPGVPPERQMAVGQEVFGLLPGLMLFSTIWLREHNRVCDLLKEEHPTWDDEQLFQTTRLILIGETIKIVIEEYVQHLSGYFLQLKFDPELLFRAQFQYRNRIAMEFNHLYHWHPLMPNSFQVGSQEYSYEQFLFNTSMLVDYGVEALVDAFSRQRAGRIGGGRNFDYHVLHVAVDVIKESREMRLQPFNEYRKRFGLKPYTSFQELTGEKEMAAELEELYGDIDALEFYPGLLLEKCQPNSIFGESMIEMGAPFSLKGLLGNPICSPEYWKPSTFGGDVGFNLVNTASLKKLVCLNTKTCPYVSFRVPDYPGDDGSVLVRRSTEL
Protocol: as §1, §2
The pellets dispersed as above were treated with 500 μM aspirin in order to knock out the activity of the COX-1 enzymes in the cells. The suspension was then diluted with the RPMI-1640 medium to contain 1×10^6 cells/ml. 100 μl of the suspension was added to each well of a 96-well ELISA plate. Then the plate was incubated for 2 hrs at 37° C. under 5% CO2 in order to fix the macrophages onto the plate. The cells, which were not fixed onto the plate were removed by washing with PBS two times. The purity of macrophages obtained thereby was confirmed by differential counting. The RPMI-1640 medium containing 3% fetal bovine serum albumin was added to each well of the plate, which was followed by stimulation with 10 μg/ml lipopolysaccharide (LPS). Usually 5×10^5 cells/ml were present by this preparation. The LPS-treated suspensions were incubated for 16 hours at 37° C. under 5% CO2 to induce COX-2. Then the culture medium was removed and the macrophages were washed two times with PBS. Then 130 μl RPMI-1640 culture medium was added to each well and the macrophage solutions were incubated at 37° C. for 10 minutes, which was followed by the treatment with 10 μM arachidonic acid and an appropriate amount of compounds of this invention. The plate was incubated for another 10 minutes. The upper solution was collected using a micropipette and was subjected to determination of PGE2 amount in the solution. The amount of PGE2 present in the collected solution was determined either by a known radio-immuno assay or by a known enzyme-immunoassay [Methods in Enzymol. 86, 258 (1982); Methods in Enzymol. 187, 24 (1990)]. The extent of COX-2 inhibition by a compound of the present invention was calculated by assuming, that the amount of PGE2 formed with the treatment of 10 μg/ml arachidonic acid was used is the maximum possible amount of PGE2, and that the amount of PGE2 formed without the treatment of arachidonic acid is the minimum possible amount of PGE2.
In the evaluation of COX-1 inhibitory activity by a compound of the present invention, the same procedures employed for evaluation of COX-2 activity were employed, except omitting the following two steps: 1) the treatment with aspirin for knockout of COX-1 activity and 2) treatment with LPS for induction of COX-2.
as §3

| Structure (SMILES) | IC50, μg/ml COX-2 (COX-2) [µg/mL] | IC50, μg/ml COX-1 (COX-1) [µg/mL] | melting point [°C] | IC50 (COX-2) [µM] | IC50 (COX-1) [µM] |
| --- | --- | --- | --- | --- | --- |
| CC1(C)OC(c2ccc(S(N)(=O)=O)cc2)=C(c2ccco2)C1=O [Example 160] | 0.057 (≈ 0.171 µM) | >10 | 156 to 157 | – | – |
| CC1(C)OC(c2ccc(S(C)(=O)=O)c(F)c2)=C(c2ccc(C(F)(F)F)cc2)C1=O [Example 286] | 0.03 (≈ 0.07 µM) | 5 (≈ 11.7 µM) | 134 to 135 | – | – |
| CC1(C)OC(c2ccc(S(C)(=O)=O)c(Cl)c2)=C(c2cc(F)cc(F)c2)C1=O [Example 362] | 0.05 (≈ 0.121 µM) | 300 (≈ 727 µM) | 200 to 201 | – | – |
| CC1(C)OC(c2ccc(S(C)(=O)=O)c(F)c2)=C(c2cc(F)cc(F)c2)C1=O [Example 285] | 0.03 (≈ 0.0757 µM) | 200 (≈ 505 µM) | 163 to 164 | – | – |
| CC1(C)OC(c2ccc(S(C)(=O)=O)c(F)c2)=C(c2cc(F)ccc2F)C1=O [Example 282] | 0.03 (≈ 0.0757 µM) | 30 (≈ 75.7 µM) | 140 to 141 | – | – |
| CC1(C)OC(c2ccc(S(C)(=O)=O)c(F)c2)=C(c2c(F)cccc2F)C1=O [Example 283] | 0.7 (≈ 1.77 µM) | 90 (≈ 227 µM) | 113 to 115 | – | – |
| CC1(C)OC(c2ccc(S(N)(=O)=O)cc2F)=C(c2ccccc2)C1=O [Example 332, 5-{4-(Aminosulfonyl)-2-fluorophenyl}-2,2-dimethyl-4-phenyl-3(2H)-furanone] | 0.03 (≈ 0.083 µM) | 5 (≈ 13.8 µM) | 79 to 81 | – | – |
| CCC1(C)OC(c2ccc(S(C)(=O)=O)cc2)=C(c2ccc(OC)c(F)c2)C1=O (stereo not drawn) [Example 214] | – | – | 158 to 160 | 0.0742 | 7.42 |
| CCC1(CC)OC(c2ccc(S(C)(=O)=O)cc2)=C(c2ccc(C(F)(F)F)cc2)C1=O [Example 246] | 0.03 (≈ 0.0684 µM) | 3 (≈ 6.84 µM) | 121 to 122 | – | – |
| CC1(C)OC(c2ccc(S(C)(=O)=O)c(F)c2)=C(c2ccccc2)C1=O [Example 273] | 0.03 (≈ 0.0832 µM) | 20 (≈ 55.5 µM) | 190 to 191 | – | – |
| CCC1(CC)OC(c2ccc(S(C)(=O)=O)cc2)=C(c2ccc(F)c(Cl)c2)C1=O [Example 254] | 0.03 (≈ 0.0709 µM) | 3 (≈ 7.09 µM) | 173 to 174 | – | – |
| CCC1(C)OC(c2ccc(S(C)(=O)=O)cc2)=C(c2ccccc2F)C1=O (stereo not drawn) [Example 188] | – | – | 108 to 109 | 0.801 | 80.1 |

Further lines, results first:

| IC50, μg/ml COX-2 (COX-2) [µg/mL] | IC50, μg/ml COX-1 (COX-1) [µg/mL] | melting point [°C] | IC50 (COX-2) [µM] | IC50 (COX-1) [µM] | Structure (SMILES) |
| --- | --- | --- | --- | --- | --- |
| 0.05 (≈ 0.14 µM) | 50 (≈ 140 µM) | 186 to 187 | – | – | CC1(C)OC(c2ccc(S(C)(=O)=O)cc2)=C(c2cccc(N)c2)C1=O [Example 66, 4-(3-aminophenyl)-2,2-dimethyl-5-{4-(methylsulfonyl)phenyl}-3(2H)-furanone] |
| 0.1 (≈ 0.268 µM) | 50 (≈ 134 µM) | 109 to 111 | – | – | COc1ccccc1C1=C(c2ccc(S(C)(=O)=O)cc2)OC(C)(C)C1=O [Example 64] |
| 0.03 (≈ 0.0793 µM) | 200 (≈ 529 µM) | 182 to 183 | – | – | CC1(C)OC(c2ccc(S(C)(=O)=O)c(F)c2)=C(c2cccc(F)c2)C1=O [Example 275] |
| 0.0188 (≈ 0.0523 µM) | >10 | 164 to 165 | – | – | CC1(C)OC(c2ccc(S(N)(=O)=O)cc2)=C(c2ccc(O)cc2)C1=O [Example 151] |
| 0.03 (≈ 0.0828 µM) | 3 (≈ 8.28 µM) | 141 to 142 | – | – | Cc1ccc(C2=C(c3ccc(S(C)(=O)=O)cc3)OC(C)(C)C2=O)s1 [Example 122] |
| 0.03 (≈ 0.0793 µM) | 3 (≈ 7.93 µM) | 150 to 152 | – | – | CC1(C)OC(c2ccc(S(C)(=O)=O)cc2F)=C(c2ccc(F)cc2)C1=O [Example 324] |
| 0.5 (≈ 1.25 µM) | 50 (≈ 125 µM) | 142 to 143 | – | – | CC1(C)OC(c2ccc(S(C)(=O)=O)cc2)=C(c2ccc(C(C)(C)C)cc2)C1=O [Example 76] |
| 0.02 (≈ 0.052 µM) | 3 (≈ 7.8 µM) | 99 to 100 | – | – | CCCc1ccc(C2=C(c3ccc(S(C)(=O)=O)cc3)OC(C)(C)C2=O)cc1 [Example 96] |
| 0.001 (≈ 0.00243 µM) | 0.12 (≈ 0.291 µM) | 208 to 209 | – | – | CC1(C)OC(c2ccc(S(N)(=O)=O)cc2)=C(c2ccc(Cl)c(Cl)c2)C1=O [Example 127] |
| 0.05 (≈ 0.129 µM) | 5 (≈ 12.9 µM) | 158 to 159 | – | – | CC1(C)OC(c2ccc(S(C)(=O)=O)cc2)=C(c2cccc([N+](=O)[O-])c2)C1=O [Example 6, 2,2-Dimethyl-5-{4-(methylsulfonyl)phenyl}-4-(3-nitrophenyl)-3(2H)-furanone] |
